Reference: PubChem BioAssay AID2060337 (Molecular Pharmacology Branch, DTP, NCI, 2025)

Test system: 832693-133-R-J1-PDC multi-cell spheroids, viability
Assay: Anticancer human tumor 832693-133-R-J1-PDC patient-derived head and neck squamous carcinoma cell line growth inhibition [IpAb]
Conditions: for IC50: curve of first compound; for viability, T/C: stronger effect = lower value
How it was run: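 Spheroids of 60% malignant cells, 25% HUVEC and 15% MSC were exposed to targeted agents combined with ipatasertib or abemaciclib. Doses started at or near clinical Cmax (10 microM when unknown) and fell in half-log steps.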
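Further: spheroids exposed to the drugs for one week before the viability readout.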
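Wherever viability, T/C is given: 100% = DMSO vehicle control wells.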

For `CCCS(=O)(=O)Nc1ccc(F)c(C(=O)c2c[nH]c3ncc(-c4ccc(Cl)cc4)cc23)c1F` + CC(C)NCC(C(=O)N1CCN(c2ncnc3c2C(C)CC3O)CC1)c1ccc(Cl)cc1, the IC50 (second compound 0.1 µM) was 8.04 µM, the IC50 (second compound 0.316 µM) was > 10 µM and the IC50 (second compound 1 µM) was > 10 µM. The IC50 (second compound 3.16 µM) was > 10 µM, the IC50 (second compound 10 µM) was > 10 µM and the viability, T/C (second compound 0.1 µM, first compound 0.0316 µM) was 99.1%. The viability, T/C (second compound 0.1 µM, first compound 0.1 µM) was 102%, the viability, T/C (second compound 0.1 µM, first compound 0.316 µM) was 92.5% and the viability, T/C (second compound 0.1 µM, first compound 1 µM) was 91.1%. The viability, T/C (second compound 0.1 µM, first compound 3.16 µM) was 88.1%, the viability, T/C (second compound 0.1 µM, first compound 10 µM) was 41.4% and the viability, T/C (second compound 0.316 µM, first compound 0.0316 µM) was 79.5%. It also gave a viability, T/C (second compound 0.316 µM, first compound 0.1 µM) of 79.2%, a viability, T/C (second compound 0.316 µM, first compound 0.316 µM) of 93% and a viability, T/C (second compound 0.316 µM, first compound 1 µM) of 92.9%. For the same compound, the viability, T/C (second compound 0.316 µM, first compound 3.16 µM) was 110%, the viability, T/C (second compound 0.316 µM, first compound 10 µM) was 56.9% and the viability, T/C (second compound 1 µM, first compound 0.0316 µM) was 60.1%. It also gave a viability, T/C (second compound 1 µM, first compound 0.1 µM) of 66.3%, a viability, T/C (second compound 1 µM, first compound 0.316 µM) of 66.7% and a viability, T/C (second compound 1 µM, first compound 1 µM) of 85.6%. For the same compound, the viability, T/C (second compound 1 µM, first compound 3.16 µM) was 139%, the viability, T/C (second compound 1 µM, first compound 10 µM) was 103% and the viability, T/C (second compound 3.16 µM, first compound 0.0316 µM) was 54.2%. For the same compound, the viability, T/C (second compound 3.16 µM, first compound 0.1 µM) was 54.8%, the viability, T/C (second compound 3.16 µM, first compound 0.316 µM) was 62.6% and the viability, T/C (second compound 3.16 µM, first compound 1 µM) was 82.2%. The viability, T/C (second compound 3.16 µM, first compound 3.16 µM) was 126%, the viability, T/C (second compound 3.16 µM, first compound 10 µM) was 92% and the viability, T/C (second compound 10 µM, first compound 0.0316 µM) was 53.5%. The viability, T/C (second compound 10 µM, first compound 0.1 µM) was 60.5%, the viability, T/C (second compound 10 µM, first compound 0.316 µM) was 61.5% and the viability, T/C (second compound 10 µM, first compound 1 µM) was 68.7%. The viability, T/C (second compound 10 µM, first compound 3.16 µM) was 98.8% and the viability, T/C (second compound 10 µM, first compound 10 µM) was 56.1%.
